Experimental findings from patent US10111932B2, “Coagonists of glucagon-like peptide 1 receptor and neuropeptide Y2 receptor” (Syracuse University, priority 2015, dated 2018) are described below.

Entries after “also recorded” stand apart in the source; their conditions may differ. Ends that are not written are not given here.

What all share (assay type): cell-based
The target of experiment [1] is T1, GLP-1R (Homo sapiens, UniProt P43220).
T1 construct: expressed in transfected cells; host or cells: HEK293
Put plainly: GLP-1R agonism, AKAR3 FRET assay in HEK-GLP-1R cells. The settings on record: for GLP-1R agonism screen: 300 nM, HEK-GLP-1R cells (FIG. 10). The procedure: (§1) The RLB series peptides were tested for function at receptors corresponding to the glucagon super family of receptors and NPY receptors. These receptors were transfected into either HEK293 cells or CHO cells. HEK 293 cells stably transfected with either GLP-1R or GIPR followed by an infection of adenovirus incorporating AKAR3 to indirectly follow cAMP production. CHO cells were transfected with NPY2R and a promiscuous g protein using FURA2 to follow calcium release.

The target in experiment [2] is T2, NPY2R (Homo sapiens, UniProt P49146).
T2 construct: expressed in transfected cells; host or cells: CHO
T2 sequence (P49146 1-381): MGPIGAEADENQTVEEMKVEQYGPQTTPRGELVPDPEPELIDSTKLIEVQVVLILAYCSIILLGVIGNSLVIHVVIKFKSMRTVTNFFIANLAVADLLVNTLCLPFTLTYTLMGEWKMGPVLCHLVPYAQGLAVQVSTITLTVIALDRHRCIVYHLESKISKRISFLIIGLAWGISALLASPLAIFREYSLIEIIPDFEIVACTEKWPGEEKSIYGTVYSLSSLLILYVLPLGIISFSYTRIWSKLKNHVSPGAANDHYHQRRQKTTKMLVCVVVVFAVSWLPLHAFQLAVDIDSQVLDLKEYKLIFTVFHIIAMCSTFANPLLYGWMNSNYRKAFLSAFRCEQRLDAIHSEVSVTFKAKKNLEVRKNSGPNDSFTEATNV
Put plainly: NPY2R agonism, FURA2 calcium release in transfected CHO cells. The procedure:
as §1

For experiment [3], the target named is T3, GIPR (Homo sapiens, UniProt P48546).
T3 construct: expressed in transfected cells; host or cells: HEK293
T3 sequence (P48546 22-466): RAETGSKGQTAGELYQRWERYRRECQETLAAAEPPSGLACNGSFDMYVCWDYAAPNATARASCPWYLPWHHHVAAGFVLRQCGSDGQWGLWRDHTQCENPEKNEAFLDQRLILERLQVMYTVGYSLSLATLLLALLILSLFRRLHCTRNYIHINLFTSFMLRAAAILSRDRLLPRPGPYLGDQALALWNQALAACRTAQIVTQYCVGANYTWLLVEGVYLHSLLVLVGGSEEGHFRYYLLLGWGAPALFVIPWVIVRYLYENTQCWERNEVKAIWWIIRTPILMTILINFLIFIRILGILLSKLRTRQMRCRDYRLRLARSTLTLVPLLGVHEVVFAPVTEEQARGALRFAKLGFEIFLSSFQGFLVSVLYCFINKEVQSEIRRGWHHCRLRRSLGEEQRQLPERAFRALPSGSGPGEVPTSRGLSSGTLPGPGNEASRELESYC
Put plainly: GIPR agonism, AKAR3 FRET in HEK293 cells stably transfected with GIPR. The settings on record: tested up to 1 μM. The protocol: as §1
Receptors in the glucagon receptor superfamily were tested based on the similarities of native peptide agonists.

T1 sequence (P43220 24-463, species assumed): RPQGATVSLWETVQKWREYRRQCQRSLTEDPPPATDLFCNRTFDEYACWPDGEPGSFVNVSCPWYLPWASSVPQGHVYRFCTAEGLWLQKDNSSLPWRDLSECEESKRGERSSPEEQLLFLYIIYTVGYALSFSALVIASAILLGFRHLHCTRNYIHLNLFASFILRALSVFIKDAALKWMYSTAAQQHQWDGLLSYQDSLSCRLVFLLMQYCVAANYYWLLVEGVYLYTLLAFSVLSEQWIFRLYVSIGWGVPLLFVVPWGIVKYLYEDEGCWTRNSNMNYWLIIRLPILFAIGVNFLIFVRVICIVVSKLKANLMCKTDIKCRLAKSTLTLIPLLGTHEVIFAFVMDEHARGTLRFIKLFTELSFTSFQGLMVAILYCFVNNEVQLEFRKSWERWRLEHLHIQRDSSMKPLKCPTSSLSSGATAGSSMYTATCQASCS

By EC50 is commonly meant the concentration needed to bring the measured effect to its halfway point. In the case of `CC[C@H](C)[C@H](NC(=O)[C@H](Cc1ccccc1)NC(=O)[C@H](CC(C)C)NC(=O)[C@H](CCCNC(=N)N)NC(=O)[C@@H](NC(=O)[C@H](C)NC(=O)[C@H](CCC(=O)O)NC(=O)[C@H](CCC(=O)O)NC(=O)[C@H](CCC(=O)O)NC(=O)[C@H](CCSC)NC(=O)[C@H](CCC(N)=O)NC(=O)[C@H](CCCCN)NC(=O)[C@H](CO)NC(=O)[C@H](CC(C)C)NC(=O)[C@H](CC(=O)O)NC(=O)[C@H](CO)NC(=O)[C@@H](NC(=O)[C@H](Cc1ccccc1)NC(=O)[C@@H](NC(=O)CNC(=O)[C@H](CCC(=O)O)NC(=O)CNC(=O)[C@@H](N)Cc1c[nH]cn1)[C@@H](C)O)[C@@H](C)O)C(C)C)C(=O)N[C@@H](CCC(=O)O)C(=O)N[C@@H](Cc1c[nH]c2ccccc12)C(=O)N[C@@H](CC(C)C)C(=O)N[C@@H](CCCNC(=N)N)C(=O)N[C@@H](Cc1c[nH]cn1)C(=O)N[C@@H](Cc1ccc(O)cc1)C(=O)N[C@@H](CC(C)C)C(=O)N[C@@H](CC(N)=O)C(=O)N[C@@H](CC(C)C)C(=O)N[C@H](C(=O)N[C@H](C(=O)N[C@@H](CCCNC(=N)N)C(=O)N[C@@H](CCC(N)=O)C(=O)N[C@@H](CCCNC(=N)N)C(=O)N[C@@H](Cc1ccc(O)cc1)C(N)=O)[C@@H](C)O)C(C)C` [Peptide 12], the GLP-1R agonism screen result in experiment [1] was “have agonism”. Moreover, the half-maximal effective concentration (EC50) came out at 0.000253 ± 5e-05 µM in experiment [1] (dose response) and 0.059 µM in experiment [2] (dose response). Also, in experiment [1] (peptides at 100 nM (FIG. 3)), the GLP-1R agonism screening entry was “effective agonists”. Further, the “Potency at the GLP-1R, comparative statement” value in experiment [1] (relative to the other dual agonists) was “significant less potent”. In addition, the NPY2R agonism screen result in experiment [2] (300 nM (FIG. 12)) is “full function”. Further, in experiment [3], the GIPR agonism result was “no agonsim; also recorded: no function”.

As to “IKPEAPREDASPEEENQAYKEFIAYLNLVTRQRY-NH2 [Peptide 13]”, in experiment [1], the GLP-1R agonism screen entry is recorded as “no function”.
